Molecules are shown by their SMILES. Where a name gives a salt, the structure may show the parent alone.

One data set has as its system striatal DOPAC. As to the kind of experiment: Dopamine Turnover: striatal DOPAC response. To be noted: rat; for Response of striatal DOPAC, percent change from control: intravenous. The format is in vivo, Sprague Dawley rats (male). Here is the method:
Male Sprague Dawley rats were injected intravenously with various doses of test compound and whole brain was removed at a predetermined time after dosing. The striatum was dissected from the brain, homogenized in a buffer/organic solvent mixture, clarified with a centrifuge, and an aliquot of the supernatant analyzed for 3,4-dihydroxyphenylacetic acid (DOPAC) by high performance liquid chromatography coupled with an electrochemical detector. The results are expressed as the percent change from control. The standard deviation of the data generally required a difference of 18% from control to be statistically significant at the 0.05 level as determined by the Student's "t" test. DOPAC is a metabolite of dopamine.

The nature of a further data set: Cisplatin Emesis. It counts as in vivo, Beagle dogs. The note with it: for ED50: Canis lupus familiaris, iv, dog, drug i.v. 30 min before and 120 min after 3 mg/kg cisplatin i.v., blocked if 2 or less emetic events in 5 h. On the procedure: Mature Beagle dogs of either sex, weighing 7-16 kg, were individually caged with water available ad libitum. Each animal was offered 300 g of Purina Dog Chow the day of an experiment. Drug in varying doses or carrier was administered intravenously 30 minutes before and 120 minutes after intravenous bolus administration of 3 mg/kg cisplatin (Ben Venue Laboratories, Inc., Bedford, Ohio). […] Emesis was considered blocked if the animal suffered 2 or less emetic events. Based upon these observations, ED50 values were determined for each of the compounds tested.

A short description of a further data set: Apomorphine Climbing. It counts as in vivo, ICR-Swiss mice (male). To be noted: for ED50: ip, 0.5 h, mouse, dose yielding climbing index of 100, apomorphine HCl 1 mg/kg s.c. 30 min after drug, read-out: Apomorphine Climbing 50% ED. Here is the method:
Male ICR-Swiss mice (Harlan Industries, Indianapolis, Ind.), weighing 25-29 g, were placed in 8×10×16 cm wire cages. After a 1 to 1.5 hour acclimatization period, drug or carrier was administered intraperitoneally. Apomorphine hydrochloride (Lilly; 1 mg/kg) or carrier (saline, 10.0 ml/kg) was administered subcutaneously 30 minutes after test compound administration. Climbing behavior was assessed 20 minutes after apomorphine injection using the following scoring system:
(0) 4 paws on the floor of the cage
(1) 1, 2, or 3 paws grasping a side of the cage
(2) 4 paws grasping a side of the cage.
Climbing indexes were calculated using the formula: [formula] 50% ED values (i.e., the dose of drug which yields a climbing index of 100) were calculated using regression equations.

Another data set can be described thus: Dacarbazine Emesis. The note with it: 1.0 mg/kg IV × 2, dog; dacarbazine 10 mg/kg i.v.; protected if 2 or less emetic events in 5 h. It counts as in vivo, beagle dogs. Here is the method:
Mature beagle dogs (7-16 kg) were used in these experiments. The animals were individually caged with water available ad libitum. Each dog was offered 300 g of Purina Dog Chow the day of an experiment. Drug (mg base/kg) or carrier (0.9% saline; 0.2 ml/kg) was administered intravenously 30 minutes before and 120 minutes after intravenous bolus administration of 10 mg/kg dacarbazine (10 mg DTIC/ml saline; Miles Pharmaceuticals). […] If the animal suffered 2 or less emetic events, the animal was considered protected.

A further data set can be described thus: Apomorphine Emesis. The format is in vivo, beagle dogs. To be noted: dog, apomorphine HCl 0.1 mg/kg s.c., protected if no emetic events in 1 h. On the procedure:
Mature beagle dogs, individually caged and weighing 10.6-14.5 kg, were used in these experiments. The animals were fed just before being dosed intravenously with drug (mg base/kg) or carrier (0.9% saline; 0.2 ml/kg). Each animal received 0.1 mg/kg apomorphine hydrochloride (1 mg/ml saline; Lilly) subcutaneously thirty minutes after administration of the test compound. […] If the animal had no emetic events, the animal was considered protected.

The conditions of data set [1]: very high dosages, beginning prior to cisplatin and continuing through post administration; cited from earlier work.
A short description of the next data set: Catalepsy. The format is in vivo, Sprague Dawley rats (female). The note with it: 20 mg/kg i.v., rat, tested one and two hours later. On the procedure:
Female Sprague Dawley rats (Harlen Industries, Indianapolis, Ind.), weighing 160-225 g, were used. The animals (n=6) were injected intravenously with drug (20 mg/kg) or carrier (saline; 2 ml/kg) and were tested one and two hours later. This involved placing the front paws of the rat on a horizontal metal bar suspended 10 cm above the table top and recording the number of seconds, to a maximum of 60, that the animal remains in this position. Each animal was tested three times in succession and the average time the animal remained on the bar was calculated. Student's non-paired "t" test was employed to determine the significance of differences between the control and treated groups.

On to `CCN(CC)CCNC(=O)c1cc(Cl)c(N)cc1OC` [Metoclopramide, metoclopramide, reference compound], for which the “Response of striatal DOPAC, percent change from control” value (from here on “Response … percent change from control”) worked out at 1.2% in the data set on striatal DOPAC (0.1 mg/kg); 12.4% in the data set on striatal DOPAC (0.3 mg/kg); 81.2% in the data set with striatal DOPAC (1.0 mg/kg); 192.0% with striatal DOPAC (3.3 mg/kg); 384.6% with striatal DOPAC (10 mg/kg). In addition, in the data set on striatal DOPAC (striatal DOPAC, i.v.), the “dopamine antagonism suggested by Table 1 (in words)” value was “exhibits strong dopamine antagonism at doses of 1.0 mg/kg and greater”. The ED50 in the data set “Cisplatin Emesis” was determined as 1.1 mg/kg; in “Apomorphine Climbing” it was 1.7 mg/kg. Besides, the “cisplatin antiemetic activity (in words)” value in the data set “Cisplatin Emesis” (data in Table 2) is on record as “effective antiemetics”. Also, the “dopamine antagonist activity from Table 2 (in words)” value in “Apomorphine Climbing” (apomorphine climbing and catalepsy data) is given as “strong dopamine antagonists”. In “Dacarbazine Emesis”, the “Dacarbazine-induced emesis: Number Protected/Number Dosed” value was 3/4. For the same molecule, the “Apomorphine-induced emesis: Number Protected/Number Dosed” value in the data set “Apomorphine Emesis” (0.125 mg/kg IV) is reported as 2/4; in the data set “Apomorphine Emesis” (1.0 mg/kg IV), 4/4. Further, the “effect on emesis caused by cisplatin (in words)” value in data set [1] is listed as “effective in alleviating emesis caused by cisplatin”.

Turning to `O=C(NC[C@@H]1CCCN1)c1cc(Cl)cc2c1OCC2` [Compound 1, (L)-5-chloro-N--(2-pyrrolidinylmethyl)-2,3-dihydrobenzo[b]furan-7-carboxamide hydrochloride], the “Response … percent change from control” value with striatal DOPAC (0.3 mg/kg) is -11.6%; in the data set on striatal DOPAC (1.0 mg/kg) it was -0.6%; with striatal DOPAC (3.3 mg/kg), -2.5%; in the data set on striatal DOPAC (10 mg/kg), 91.8%; with striatal DOPAC (33 mg/kg) it was 255.4%. Further, the ED50 in “Cisplatin Emesis” came out at 0.6 mg/kg; in the data set “Apomorphine Climbing”, 36.2 mg/kg. The Catalepsy entry in the data set “Catalepsy” (hydrochloride) is “No”. The “Dacarbazine-induced emesis: Number Protected/Number Dosed” value in “Dacarbazine Emesis” was 4/4. In addition, the “Apomorphine-induced emesis: Number Protected/Number Dosed” value is given as 0/2 in the data set “Apomorphine Emesis” (1.0 mg/kg IV) and 2/2 in the data set “Apomorphine Emesis” (2.0 mg/kg IV).

Take `Nc1cc2c(c(C(=O)NC[C@@H]3CCCN3)c1)OCC2` [Compound 2, (L)-5-amino-N--(2-pyrrolidinylmethyl)-2,3-dihydrobenzo[b]furan-7-carboxamide hydrochloride]: the “Response … percent change from control” value was 0.0% in the data set with striatal DOPAC (0.3 mg/kg); -6.5% with striatal DOPAC (1.0 mg/kg); -17.3% with striatal DOPAC (3.3 mg/kg); 0.0% in the data set with striatal DOPAC (10 mg/kg); -10.7% in the data set with striatal DOPAC (33 mg/kg). Also, the results for the ED50 in “Cisplatin Emesis” and in “Apomorphine Climbing” were approximately 1.75 mg/kg and 100 mg/kg, respectively. Moreover, in “Catalepsy” (hydrochloride), the Catalepsy result was “No”. The “Dacarbazine-induced emesis: Number Protected/Number Dosed” value in “Dacarbazine Emesis” was 4/4. In addition, the “Apomorphine-induced emesis: Number Protected/Number Dosed” value in the data set “Apomorphine Emesis” (4.0 mg/kg IV) is on record as 0/4.

Consider `COc1cc(N)c(Cl)cc1C(=O)NC[C@@H]1CCCN1` [Compound 4, (L)-4-amino-5-chloro-2-methoxy-N--(2-pyrrolidinylmethyl)benzamide hydrochloride], for which the “Response … percent change from control” value in the data set on striatal DOPAC (0.3 mg/kg) is -1.9%; in the data set with striatal DOPAC (1.0 mg/kg), -3.3%; with striatal DOPAC (3.3 mg/kg), -3.7%; in the data set on striatal DOPAC (10 mg/kg) it was 13.7%; in the data set on striatal DOPAC (33 mg/kg), 41.6%. Further, the ED50 in the data set “Cisplatin Emesis” is 1 mg/kg; in “Apomorphine Climbing” it was 44.5 mg/kg. Moreover, the Catalepsy result in the data set “Catalepsy” (hydrochloride) is “No”. Also, the “Apomorphine-induced emesis: Number Protected/Number Dosed” value in the data set “Apomorphine Emesis” (1.0 mg/kg IV) was 0/4.

In the case of `CCN1CCCC1CNC(=O)c1cc(Cl)c(N)cc1OC` (centres unmarked) [Compound C-4, 4-amino-5-chloro-2-methoxy-N--(1-ethyl-2-pyrrolidinylmethyl)benzamide], the ED50 in “Cisplatin Emesis” was 1 mg/kg; in “Apomorphine Climbing”, 0.44 mg/kg. Further, in the data set “Catalepsy”, the Catalepsy result is listed as “Yes”.

Turning to `CCN1CCCC1CNC(=O)c1cc(N)cc2c1OCC2` (centres unmarked) [Compound C-2, 5-amino-N--(1-ethyl-2-pyrrolidinylmethyl)-2,3-dihydrobenzo[b]furan-7-carboxamide hydrochloride], the ED50 in the data set “Cisplatin Emesis” was 2.5 mg/kg; in the data set “Apomorphine Climbing”, 10.4 mg/kg. Moreover, the Catalepsy result in the data set “Catalepsy” is listed as “No”.

`CCN1CCCC1CNC(=O)c1cc(Cl)c(N)c2c1OCC2` (centres unmarked) [Compound C-3, 4-amino-5-chloro-N--(1-ethyl-2-pyrrolidinylmethyl)-2,3-dihydrobenzo[b]furan-7-carboxamide fumarate]: the ED50 came to 0.7 mg/kg in the data set “Cisplatin Emesis” and 1.5 mg/kg in the data set “Apomorphine Climbing”. Further, the Catalepsy result in “Catalepsy” is “Yes”.

In the case of `CCN1CCCC1CNC(=O)c1cc(Cl)cc2c1OCC2` (centres unmarked) [Compound C-1, 5-chloro-N--(1-ethyl-2-pyrrolidinylmethyl)-2,3-dihydrobenzo[b]furan-7-carboxamide hydrochloride], the ED50 stood at 1 mg/kg in “Cisplatin Emesis” and 0.91 mg/kg in the data set “Apomorphine Climbing”. Also, the Catalepsy entry in the data set “Catalepsy” was “Yes”.

Regarding `Nc1c(Cl)cc(C(=O)NC[C@@H]2CCCN2)c2c1CCO2` [Compound 3, (L)-4-amino-5-chloro-N--(2-pyrrolidinylmethyl)-2,3-dihydrobenzo[b]furan-7-carboxamide hydrochloride], the “Response … percent change from control” value is given as -14.4% in the data set on striatal DOPAC (0.3 mg/kg); -10.0% with striatal DOPAC (1.0 mg/kg); -6.2% in the data set with striatal DOPAC (3.3 mg/kg); -2.7% in the data set on striatal DOPAC (10 mg/kg); 6.4% in the data set with striatal DOPAC (33 mg/kg). The results for the ED50 in “Cisplatin Emesis” and in “Apomorphine Climbing” were approximately 0.42 mg/kg and 75 mg/kg, respectively. The Catalepsy entry in the data set “Catalepsy” (hydrochloride) was “No”. Moreover, the “Dacarbazine-induced emesis: Number Protected/Number Dosed” value in “Dacarbazine Emesis” was 4/4. Besides, the “Apomorphine-induced emesis: Number Protected/Number Dosed” value in “Apomorphine Emesis” (1.0 mg/kg IV), in “Apomorphine Emesis” (2.0 mg/kg IV) and in “Apomorphine Emesis” (4.0 mg/kg IV) was 0/4 in each case.

The values above are taken from patent US4772459A, “Method for controlling emesis caused by chemotherapeutic agents and antiemetic agents useful therein” (priority 1986, dated 1988).
